These results are taken from paper PMC11178787, “Development of a natural product optimization strategy for inhibitors against MraY, a promising antibacterial target” (Nature Communications, 2024).

Data set [1] has as its system T1, Enterococcus faecalis 28.
T1 construct: 28
As to the kind of experiment: microbe, parasite or virus in culture. The arrangement: CLSI broth microdilution MIC in MHB-II. Particulars: Enterococcus faecalis, 28, 18 h, read-out: MIC. On the procedure:
(§1) MICs were determined by a microdilution broth method as recommended by the CLSI with MHB-II. For MICs of stable analogues, a 2-fold dilution of each compound was prepared in DMSO at 100-fold of the final concentration. The strains were inoculated with 5 × 10^5 cfu/mL in 96-well plates (each 100 μL/well), and 1 μL of DMSO solutions of the samples were added (contained less than 1% DMSO). The plates were incubated at 37 °C for 18 h and then MICs were determined. MICs of stable analogues in Table 1 were the highest value in three trials. MICs in Supplementary Table 1 were determined in one trial.

The test system of data set [2] is Enterococcus faecium 1. In words: microbe, parasite or virus in culture. Also noted: CLSI broth microdilution MIC in MHB-II. The following applies: Enterococcus faecium, 1, 18 h, read-out: MIC. On the procedure: as §1
Data set [3] concerns T2, Staphylococcus aureus #2931.
T2 construct: #2931
In words: microbe, parasite or virus in culture. Also noted: CLSI broth microdilution MIC in MHB-II. Particulars: Staphylococcus aureus, 18 h, read-out: MIC. On the procedure: as §1

Data set [4] concerns Enterococcus faecium 4. As to the kind of experiment: microbe, parasite or virus in culture. The following applies: Enterococcus faecium, 4, 18 h, read-out: MIC. Also noted: CLSI broth microdilution MIC in MHB-II. On the procedure: as §1
For data set [5], the system named is T3, Staphylococcus aureus #2933.
T3 construct: #2933
As to the kind of experiment: microbe, parasite or virus in culture. The following applies: Staphylococcus aureus, 18 h, read-out: MIC. Also noted: CLSI broth microdilution MIC in MHB-II. On the procedure:
as §1

Data set [6] concerns T4, Staphylococcus aureus #2934.
T4 construct: #2934
As to the kind of experiment: microbe, parasite or virus in culture. Also noted: CLSI broth microdilution MIC in MHB-II. The following applies: Staphylococcus aureus, 18 h, read-out: MIC. On the procedure: as §1

Data set [7] relates to T5, Enterococcus faecalis 22.
T5 construct: 22
As to the kind of experiment: microbe, parasite or virus in culture. Also noted: CLSI broth microdilution MIC in MHB-II. Particulars: Enterococcus faecalis, 22, 18 h, read-out: MIC. On the procedure: as §1

Data set [8] deals with T6, Staphylococcus aureus #2071.
T6 construct: #2071
In words: microbe, parasite or virus in culture. Also noted: CLSI broth microdilution MIC in MHB-II. The following applies: Staphylococcus aureus, 18 h, read-out: MIC. As to the method: as §1

Data set [9] deals with Enterococcus faecium 8. As to the kind of experiment: microbe, parasite or virus in culture. Also noted: CLSI broth microdilution MIC in MHB-II. The following applies: Enterococcus faecium, 8, 18 h, read-out: MIC. On the procedure: as §1
In data set [10] the test system is T7, Staphylococcus aureus #2334.
T7 construct: #2334
As to the kind of experiment: microbe, parasite or virus in culture. Particulars: Staphylococcus aureus, 18 h, read-out: MIC. Also noted: CLSI broth microdilution MIC in MHB-II. As to the method: as §1

Data set [11] relates to Enterococcus faecium 5. As to the kind of experiment: microbe, parasite or virus in culture. The arrangement: CLSI broth microdilution MIC in MHB-II. Particulars: Enterococcus faecium, 5, 18 h, read-out: MIC. As to the method: as §1
For data set [12], the system named is T8, Enterococcus faecalis 21.
T8 construct: 21
In words: microbe, parasite or virus in culture. The arrangement: CLSI broth microdilution MIC in MHB-II. Particulars: Enterococcus faecalis, 21, 18 h, read-out: MIC. As to the method:
as §1

The subject of data set [13] is T9, Staphylococcus aureus #2935.
T9 construct: #2935
As to the kind of experiment: microbe, parasite or virus in culture. The arrangement: CLSI broth microdilution MIC in MHB-II. Particulars: Staphylococcus aureus, 18 h, read-out: MIC. As to the method: as §1

For data set [14], the system named is T10, Staphylococcus aureus #1958.
T10 construct: #1958
As to the kind of experiment: microbe, parasite or virus in culture. Also noted: CLSI broth microdilution MIC in MHB-II. Particulars: Staphylococcus aureus, 18 h, read-out: MIC. On the procedure:
as §1

Data set [15] relates to T11, Staphylococcus aureus #2110.
T11 construct: #2110
In words: microbe, parasite or virus in culture. Particulars: Staphylococcus aureus, 18 h, read-out: MIC. The arrangement: CLSI broth microdilution MIC in MHB-II. As to the method: as §1

For data set [16], the system named is T12, E. faecium(VRE) ATCC 51858.
T12 construct: ATCC 51858 (VRE)
As to the kind of experiment: microbe, parasite or virus in culture. Also noted: CLSI broth microdilution MIC in MHB-II, single trial. The following applies: Enterococcus faecium, 18 h. As to the method: as §1

The subject of data set [17] is T13, E. faecium ATCC 35667.
T13 construct: ATCC 35667
In words: microbe, parasite or virus in culture. Also noted: CLSI broth microdilution MIC in MHB-II, single trial. The following applies: Enterococcus faecium, ATCC35667, 18 h. On the procedure: as §1

The subject of data set [18] is T14, Staphylococcus aureus MRSA JE2.
T14 construct: JE2 (MRSA)
As to the kind of experiment: microbe, parasite or virus in culture. The arrangement: CLSI broth microdilution MIC in MHB-II, single trial. The following applies: 18 h. On the procedure: as §1

Data set [19] relates to T15, S. aureus ATCC 29213.
T15 construct: ATCC 29213
As to the kind of experiment: microbe, parasite or virus in culture. Particulars: Staphylococcus aureus, ATCC29213, 18 h. The arrangement: CLSI broth microdilution MIC in MHB-II, single trial. As to the method: as §1

For data set [20], the system named is T16, E. faecalis(VRE) ATCC 51299.
T16 construct: ATCC 51299 (VRE)
As to the kind of experiment: microbe, parasite or virus in culture. The following applies: Enterococcus faecalis, 18 h. Also noted: CLSI broth microdilution MIC in MHB-II, single trial. As to the method: as §1

Data set [21] deals with T17, E. faecium(VRE) ATCC 51559.
T17 construct: ATCC 51559 (VRE)
As to the kind of experiment: microbe, parasite or virus in culture. The following applies: Enterococcus faecium, 18 h. The arrangement: CLSI broth microdilution MIC in MHB-II, single trial. As to the method: as §1

A short description of data set [22]: in vitro. The following applies: human, hepg2 cells; read-out: IC50. Also noted: WST-8 cell viability assay in HepG2 cells. As to the method:
Cells were regularly passed to maintain exponential growth. HepG2 cells were sowed by 1.0 × 10^4 cells for each well in 96-well plate and cultured at 37 °C under 5% CO2 in air for 24 h. The cells were treated with a solution of test compounds in DMSO at various concentration and incubated at 37 °C under 5% CO2 in air for 24 h. After that, the WST-8 (Dojindo) cell proliferation assay was used. Cell viability was indicated as a percentage of the negative control (cells treated with DMSO only) and that value was fixed at 100%.

Data set [23] concerns the target MraYSA (S. aureus MraY) (Staphylococcus aureus, UniProt Q2FZ93). In words: fluorescence assay of dansylated lipid I formation. The class given is biochemical.

Each structure is given as a SMILES string. Converted amounts (≈) assume the structure as drawn. Where two headings read alike, the source gives them in different places.

MraYSA (S. aureus MraY), sequence (Q2FZ93 whole entry): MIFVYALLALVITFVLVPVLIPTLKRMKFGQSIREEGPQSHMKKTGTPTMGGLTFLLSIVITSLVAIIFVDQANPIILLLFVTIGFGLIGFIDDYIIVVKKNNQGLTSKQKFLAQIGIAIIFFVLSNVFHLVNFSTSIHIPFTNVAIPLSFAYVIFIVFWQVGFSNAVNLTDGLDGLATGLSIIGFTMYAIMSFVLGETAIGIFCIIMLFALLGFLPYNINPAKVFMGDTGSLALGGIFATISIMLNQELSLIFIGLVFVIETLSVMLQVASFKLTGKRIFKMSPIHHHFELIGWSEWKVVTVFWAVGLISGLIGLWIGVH

In the case of `CC1(C)S[C@@H]2[C@H](NC(=O)[C@H](N)c3ccccc3)C(=O)N2[C@H]1C(=O)O` [ampicillin], the MIC in data set [1] is 1 µg/mL (≈ 2.86 µM); in data set [2] it was over 128 µg/mL; in data set [3], 32 µg/mL (≈ 91.6 µM); in data set [4], 128 µg/mL (≈ 366 µM); in data set [5], 32 µg/mL (≈ 91.6 µM); in [6] it was 16 µg/mL (≈ 45.8 µM). In addition, the MIC in data set [7] was found to be 1 µg/mL (≈ 2.86 µM); in data set [8], 32 µg/mL (≈ 91.6 µM); in data set [9], 128 µg/mL (≈ 366 µM); in data set [10], 16 µg/mL (≈ 45.8 µM); in data set [11], 128 µg/mL (≈ 366 µM); in [12], 1 µg/mL (≈ 2.86 µM). Besides, the MIC in [13] amounted to 16 µg/mL (≈ 45.8 µM); in [14], 32 µg/mL (≈ 91.6 µM); in data set [15] it was 16 µg/mL (≈ 45.8 µM); in data set [16] (read-out: ampicillin MIC), 128 µg/mL (≈ 366 µM); in data set [17] (read-out: ampicillin MIC) it was 1 µg/mL (≈ 2.86 µM); in [18] (read-out: ampicillin MIC), 4 µg/mL (≈ 11.4 µM). Moreover, the MIC in data set [19] (read-out: ampicillin MIC) stood at 1 µg/mL (≈ 2.86 µM); in data set [20] (read-out: ampicillin MIC), 1 µg/mL (≈ 2.86 µM); in [21] (read-out: ampicillin MIC) it was 128 µg/mL (≈ 366 µM).
As usually defined, the IC50 is the point on the concentration scale where inhibition reaches its midpoint. Read a low IC50 as inhibition by little substance. Regarding `CCCCCCCCCCCCCCCC(=O)N[C@@H](CCCNC(=N)N)C(=O)NCc1ccc(CN[C@H](C(=O)O)[C@H](O[C@@H]2O[C@H](CN)[C@@H](O)[C@H]2O)[C@H]2O[C@@H](n3ccc(=O)[nH]c3=O)[C@H](O)[C@@H]2O)cc1` [compound 3, analogue 3], the CC50 at 24 h in [22] was 18 µM. In addition, the MIC in data set [1] is under 0.06 µg/mL; in data set [2], 1 µg/mL (≈ 1.04 µM); in data set [3], 1 µg/mL (≈ 1.04 µM); in data set [4] it was 0.5 µg/mL (≈ 0.52 µM); in [5], 1 µg/mL (≈ 1.04 µM); in data set [6] it was 1 µg/mL (≈ 1.04 µM). In addition, the MIC came to 0.13 µg/mL (≈ 0.135 µM) in data set [7]; 0.5 µg/mL (≈ 0.52 µM) in data set [9]; 1 µg/mL (≈ 1.04 µM) in [10]; 1 µg/mL (≈ 1.04 µM) in [11]; 0.5 µg/mL (≈ 0.52 µM) in [12]; 2 µg/mL (≈ 2.08 µM) in data set [14]. Besides, the MIC stood at 2 µg/mL (≈ 2.08 µM) in data set [15]; 2 µg/mL (≈ 2.08 µM) in data set [16] (read-out: 3 MIC); 1 µg/mL (≈ 1.04 µM) in data set [17] (read-out: 3 MIC); 1 µg/mL (≈ 1.04 µM) in [18] (read-out: 3 MIC); 1 µg/mL (≈ 1.04 µM) in [19] (read-out: 3 MIC); 0.5 µg/mL (≈ 0.52 µM) in data set [20] (read-out: 3 MIC). The MIC in [21] (read-out: 3 MIC) is 0.5 µg/mL (≈ 0.52 µM). In [23], this compound registered a 50% inhibitory concentration (IC50) of 0.004 µM.
